Type in all cases: cell-based, Chinese Hamster
In assay [1] the test system is CHO-DG44 cells from cell line 1. Kind of assay: Fed-batch 2 L bioreactor culture with cysteine/cystine derivatives, cell line 1 (Example 3). The note with it: 50% replacement, cell line 1, 2 L bioreactor; for decrease of the b value level (color intensity) compared to control: 40 mg/mL. The procedure: (§1) The ability of cysteine/cystine derivatives to reduce color and acidic species of a recombinant protein preparation produced in cell culture was evaluated in a bioreactor for two cell lines. This model is more representative of the large-scale production than the shake flask due to the geometry and additional control. CHO-DG44 cells from cell line 1 and 2 were inoculated in 1300 mL of basal media at a seeding density of 0.35×10^6 cells/mL in 2 L stirred bioreactor (Sartorius). The cells were cultivated during 14 days in fed-batch mode. The cell cultures were agitated at 280 rpm and the DO was maintained at 40%. The cell culture was maintained at pH 7.0±0.2 with an automatic CO2 sparging regulation. Cells were cultured in a fed-batch mode with bolus addition of Feed every day of culture. The basal media contained 0.04 mmol/L of cysteine+0.38 mmol/L of cystine. The Feed contained 153.3 mmol/L of cystine. Over the entire 14-day production phase, the total volume of Feed added corresponded to 5.7% (w/w) of the culture start volume for cell line 1 and to 3.1% (w/w) of the culture start volume for cell line 2.
(§2) The cysteine present in the Feed was replaced by different cysteine- and cystine derivatives at different percentages as presented in Table 2. A condition with only 50% of cysteine was added to test whether the improvements observed were due to the cysteine derivative or to the reduction of cysteine only. Osmolality was daily monitored using an osmometer from Advanced instrument. Off line pH, dissolved O2 and dissolved CO2 were daily monitored using a Nova Biomedical Phox (Nova biomedical). Metabolites concentrations were daily determined using a CedexBioHT system (Roche). Viable cell concentration and cell viability were measured daily using a ViCell automated cell counter (Beckman Coulter). The cell culture fluid was collected daily by centrifuging 1 mL of cell culture fluid for determination of antibody titer by HPLC prot A (waters) or using protein-L Octet measurement (Pall). At the end of the 14 days of culture, the cell culture fluid was harvested by centrifugation. The supernatant was then purified using a protein-A or L affinity chromatography (GE). The protein-A or L eluates were used for the molecular weight determination using UPLC size exclusion (Waters) and for the charge variants determination using isocapillary focusing (PROTEINSIMPLE iCE3). Another part of the protein-A eluates (only from cell line 1) was concentrated to 40 mg/mL using Amicon centricon centrifugal filter devices (Millipore). Color intensity of the concentrated antibody composition was measured in the concentrated protein A eluates using a spectrophotometer by transmission (UltrascanPro) and compared to the CIE (commission internationale de l'éclairage) scale. The numerical results were normalized to the concentration of 40 mg/mL.

For the next assay, the system named is cell line 1. Kind of assay: Reproducibility in 2 L bioreactor, cell line 1, average of data sets 1 and 2 (Example 4). The note with it: for cell growth (VCC) compared to control: from day 9, 2 L bioreactor, data sets 1 and 2. As to the method:
as §1, §2
The reproducibility of the results was evaluated in bioreactor with cell line 1. The experiments of Example 3 were repeated with an additional control and a bioreactor with 50% S-sulfocysteine 50% Cysteine Feed. The data from the two experiments were analyzed to confirm the effect previously observed with cysteine/cystine derivatives.

Assay [2] deals with CHO-DG44 cells from cell line 2. Briefly: Fed-batch 2 L bioreactor culture with cysteine/cystine derivatives, cell line 2 (Example 3). Conditions: 50% replacement; cell line 2, 2 L bioreactor. As to the method:
as §1, §2

The subject of assay [3] is CHO-DG44 cells producing a full-length antibody, mAb1. Briefly: Fed-batch shake flask culture with cysteine in Feed replaced by cysteine/cystine derivatives (Example 1). The procedure:
The ability of cysteine/cystine derivatives to reduce color and acidic species of an antibody preparation produced recombinantly by host cells grown in cell culture was evaluated. For this experiment, a scale-down model in shake flask was used. CHO-DG44 cells producing a full-length antibody, mAb1, were inoculated in 100 mL of basal media at a seeding density of 0.35×10^6 cells/mL mAb1 comprises a light chain having the sequence as defined in SEQ ID NO: 9 and a heavy chain having the sequence as defined in SEQ ID NO: 10.
The shake flask vessels were 250 mL shake flasks (corning) disposed in an agitated incubator (Infors) protected from light. The cells were cultivated for 14 days at 36.8° C. with 80% humidity. The cell cultures were agitated at 140 rpm at the beginning of the process. The agitation was increased during the process progressively to reach 250 rpm to maintain a DO % at 40% in the shake flask, as is it done in a 2 L bioreactor process. The cell culture was maintained at pH 7.0±0.2 by decreasing the CO2 in the incubator from 5% before the process to 2% during the process. Cells were cultured in a fed-batch mode with bolus addition of Feed every day of culture. The basal media contained 0.04 mmol/L of cysteine+0.38 mmol/L of cystine. The Feed contained 153.3 mmol/L of cystine. Over the entire 14-day production phase, the total volume of Feed added corresponded to 4.47% (v/v) of the culture start volume.
The cysteine present in the Feed was replaced by different cysteine and cystine derivatives at different percentages as presented in Table 1. Osmolality was daily monitored using an osmometer from Advanced Instruments. Off line pH, dissolved O2 and dissolved CO2 were daily monitored using a model BioProfile pHOx® blood gas analyser (Nova Biomedical Corporation, Waltham, Mass.). Metabolites concentrations were daily determined using a CedexBioHT system (Roche). Viable cell concentration and cell viability were measured daily using a ViCell automated cell counter (Beckman Coulter). The cell culture fluid was collected daily by centrifuging 1 mL of cell culture fluid for determination of antibody titer using protein A HPLC (Waters). At the end of the 14 days of culture, the cell culture fluid was harvested by centrifugation. The supernatant was then purified using a protein-A affinity chromatography (MabSelect Sure, GE). […] The relative percentage of main, acidic (APG for Acidic Peak Group) and basic (BPG for Basic Peak Group) isoforms of the purified mAb was determined by Imaged Capillary Electrophoresis (PROTEINSIMPLE iCE3). […]
Color intensity of the concentrated antibody composition was measured in the concentrated protein A eluates using a spectrophotometer by transmission (UltrascanPro) and compared to the CIE (commission internationale de l'éclairage) scale. […]

Assay [4] deals with CHO-DG44 cells from cell line 1. Briefly: Fed-batch Ambr15 mini bioreactor culture, different replacement levels, cell line 1 (Example 5). The note with it: for cell growth: 90% of cysteine/cystine in Feed replaced, Ambr15. The procedure:
We tested different concentrations of cysteine/cystine derivatives on the improvement on the APG level of a recombinant protein preparation produced in cell culture cultivated in mini bioreactors. CHO-DG44 cells from cell line 1 were inoculated in 12 mL basal media at a seeding density of 0.35×10^6 cells/mL in Ambr15 bioreactors (Sartorius). The cells were cultivated in fed-batch mode during 14 days. The DO was maintained at 40% and the pH was maintained 7.0±0.2 with an automatic CO2 sparging regulation. Viable cell concentration and cell viability were measured daily using a ViCell automated cell counter (Beckman Coulter). Cells were cultured in a fed-batch mode with a daily bolus addition of Feed. The basal media contained 0.04 mmol/L cysteine+0.38 mmol/L cystine. The Feed contained 153.3 mmol/L of cystine. Over the entire 14-day production phase, the total volume of added Feed corresponded to 4.7% (v/v) of the culture start volume.
Different percentages of cysteine present in the Feed was replaced by different cysteine- and cystine analogs. Table 4 provides an overview of different percentages tested and their equivalence in molar ratio relative to cysteine or cystine. E.g. for N-Acetyl-L-cysteine 10% means that 10% molar amount of cysteine equivalent has been replaced by 10% molar amount of N-Acetyl-L-cysteine; for N,N′-Diacetyl-L-cystine, 10% means that 10 molar amount of cystine equivalent has been replaced with 10% molar amount of N,N′-Diacetyl-L-cystine. At the end of the 14 days of culture, the cell culture fluid was harvested by centrifugation. The supernatant was then purified using a protein-A affinity chromatography (GE). The protein-A eluates were used for the charge variants determination using isocapillary focusing (PROTEINSIMPLE iCE3).

[5] abbreviates: 50% replacement, compared to 50% cysteine feed.
Setting [6] is: 50% replacement, data sets 1 and 2 average.

The values below come from US11859203B2, “Cell culture methods” (UCB BIOPHARMA SRL, priority 2017, dated 2024).

As for `COC(=O)[C@H](CSSC[C@H](NC(C)=O)C(=O)OC)NC(C)=O` [N,N′-diacetyl-L-cystine dimethylester, N,N′-diacetyl-L-cystine-dimethylester], in assay [1], the “decrease of acidic species level compared to control” value (shortened to “decrease of acidic species level”) is on record as 15%, the “decrease of antibody titer compared to control” value is on record as “less than 5%”, the main species level entry is “increase of main species” and the “decrease of the b value level (color intensity) compared to control” value came out at 25%. In addition, the specific productivity entry with cell line 1 (setting [5]) was “increase of the specific productivity”. Further, in the assay on cell line 1 (setting [6]), the “average decrease of b value level (color intensity) compared to control” value (“average decrease of b value level” for short) turned out to be 30% and the “decrease in antibody titer compared to the controls average” value (from here on “decrease in antibody titer”) is “less than 5%”. The “titer loss due to cysteine reduction in feed compensated” value in the assay with cell line 1 (compared to 50% cysteine feed) came to 5%. Also, in assay [2], the “decrease of acidic species level” value came to 13% and the main species level entry is given as “increase of main species”. Also, in assay [3] (50% replacement, day 14, eluate normalized to 40 mg/mL), the “decrease of b*value (color intensity) of the concentrated protein-A eluate compared to control” value is recorded as 21.2%. In addition, the “decrease on acidic variants level compared to control” value in assay [3] (50% replacement, day 14, iCE3) was determined as 24.8%. The “acidic species level with respect to the control” value in assay [4] (10-90% replacement) was “decrease of the acidic species level”. The cell growth result in assay [4] is on record as “Inhibition of the growth”.
Take `CC(=O)N[C@@H](CSSC[C@H](NC(C)=O)C(=O)O)C(=O)O` [N,N′-diacetyl-L-cystine, N,N′-Diacetyl-L-cystine]: in assay [1], the “decrease of acidic species level” value stood at 5%, the main species level entry is listed as “increase of main species” and the “decrease of the b value level (color intensity) compared to control” value was determined as 2.5%. The specific productivity entry in the assay with cell line 1 (setting [5]) is given as “did not impact the productivity”. Besides, in the assay on cell line 1 (setting [6]), the “average decrease of b value level” value is 14%, the “decrease in antibody titer” value came to 10% and the main species level result was “increase of main species”. Further, the “cell growth (VCC) compared to control” value in the assay on cell line 1 (50% replacement) is listed as “higher VCCs than the control conditions”. Further, in assay [2], the “decrease of acidic species level” value is 8% and the main species level entry was “increase of main species”. The “main charge species level with respect to the control” value in assay [4] (10-90% replacement) is “positive difference with respect to the control”. Further, the cell growth entry in assay [4] is “Inhibition of the growth”. In addition, the “maximum reduction of acidic species level with respect to the control” value in assay [4] (with the increase of the percentage of replacement (10-90%)) was found to be 27.5%.
As for `N[C@@H](CSS(=O)(=O)O)C(=O)O` [S-sulfocysteine, S-Sulfocysteine, reference compound], in the assay on cell line 1 (setting [5]), the specific productivity result is “not to a specific impact”. In addition, in the assay with cell line 1 (setting [6]), the “average decrease of b value level” value is 5% and the “decrease in antibody titer” value was 25%. Besides, in the assay on cell line 1 (50% replacement), the “cell growth (VCC) compared to control” value is “higher cell death than the control”. Moreover, in assay [3] (50% of cysteine in Feed replaced), the “maximum viable cell concentration” value is 2×10^6 cells/mL. In assay [3] (100% of cysteine in Feed replaced by derivative, shake flask, 14 days), the “cell growth (viable cell concentration) compared to control” value is recorded as “cells rapidly died on day 7”.
